Data reported in patent US12545639B2, “3-substituted phenylamidine compounds, preparation and use thereof” (PI INDUSTRIES LTD., priority 2019, dated 2026).

Tests used:
[1] = tested on: Alternaria solani; assay: Alternaria solani (early blight of tomato/potato) in vitro test, radial growth on potato dextrose agar; type: cell-based; details: 168 h, 300 ppm in potato dextrose agar, 25° C., 60% relative humidity, seven days, read-out: control compared to the untreated check (radial growth)
[2] = tested on: Colletotrichum capsici; assay: Colletotrichum capsici (anthracnose) in vitro test, radial growth on potato dextrose agar; type: cell-based; details: Colletotrichum truncatum, 168 h; 300 ppm in potato dextrose agar; 25° C., 60% relative humidity, seven days; read-out: control compared to the untreated check (radial growth)
[3] = tested on: Rhizoctonia solani; assay: Rhizoctonia solani (rice sheath blight/potato black scurf) in vitro test, radial growth on potato dextrose agar; type: cell-based; details: 168 h, 300 ppm in potato dextrose agar, 25° C., 60% relative humidity, seven days, read-out: control compared to the untreated check (radial growth)
[4] = tested on: Pyricularia oryzae; assay: microbe, parasite or virus in culture; type: cell-based; details: 168 h, read-out: control compared to the untreated check (radial growth)
[5] = tested on: Phakopsora pachyrhizi; assay: Phakopsora pachyrhizi test in soybean, preventive, in vivo on plants; details: in Glycine max, read-out: Efficacy (% control), disease severity compared to the untreated check
[6] = tested on: Septoria lycopersici/Corynespora cassicola (CORYCA); assay: Septoria lycopersici/Corynespora cassicola (CORYCA) (leaf spot of tomato) in vitro test, radial growth on potato dextrose agar; type: cell-based; details: 168 h, 300 ppm in potato dextrose agar, 25° C., 70% relative humidity, seven days, read-out: control compared to the untreated check (radial growth)
[7] = tested on: Botrytis cinerea; assay: Botrytis cinerea (gray mold) in vitro test, radial growth on potato dextrose agar; type: cell-based; details: 168 h, 300 ppm in potato dextrose agar, 22° C., 90% relative humidity, seven days, read-out: control compared to the untreated check (radial growth)

CCN(C)C=Nc1cc(Cl)cc(Cc2ccc(Cl)c(F)c2)c1C [Compound 131, N′-(5-chloro-3-(4-chloro-3-fluorobenzyl)-2-methylphenyl)-N-ethyl-N-methylformimidamide]
≥ 70%: inhibition of growth at 300 ppm [1] | inhibition of growth at 300 ppm [2] | inhibition of growth at 300 ppm [3] | inhibition of growth at 300 ppm [4] | pest or weed control at 500 ppm [5] | inhibition of growth at 300 ppm [6]

CCN(C)C=Nc1cc(F)cc(Nc2cc(C)cc(F)c2)c1C [Compound 114, N-ethyl-N′-(5-fluoro-3-((3-fluoro-5-methylphenyl)amino)-2-methylphenyl)-N-methylformimidamide]
≥ 70%: inhibition of growth at 300 ppm [1] | inhibition of growth at 300 ppm [2] | inhibition of growth at 300 ppm [4] | pest or weed control at 500 ppm [5] | inhibition of growth at 300 ppm [6]

CCc1cccc(Nc2cc(C)cc(N=CN(C)CC)c2Cl)n1 [Compound 226, N′-(2-chloro-3-((6-ethylpyridin-2-yl)amino)-5-methylphenyl)-N-ethyl-N-methylformimidamide]
≥ 70%: inhibition of growth at 300 ppm [1] | inhibition of growth at 300 ppm [2] | inhibition of growth at 300 ppm [6]

CCN(C)C=Nc1cc(Cl)cc(Cc2ccccc2Br)c1C [Compound 90, N′-(3-(2-bromobenzyl)-5-chloro-2-methylphenyl)-N-ethyl-N-methylformimidamide]
≥ 70%: inhibition of growth at 300 ppm [7] | inhibition of growth at 300 ppm [1] | inhibition of growth at 300 ppm [2] | inhibition of growth at 300 ppm [3] | inhibition of growth at 300 ppm [4] | pest or weed control at 500 ppm [5]

CCN(C)C=Nc1cc(C)cc(Nc2cccc(Cl)c2)c1Cl [Compound 34, N′-(2-chloro-3-((3-chlorophenyl)amino)-5-methylphenyl)-N-ethyl-N-methylformimidamide]
≥ 70%: inhibition of growth at 300 ppm [7] | inhibition of growth at 300 ppm [1] | inhibition of growth at 300 ppm [2] | inhibition of growth at 300 ppm [3] | inhibition of growth at 300 ppm [4] | pest or weed control at 500 ppm [5]

CCN(C)C=Nc1cc(F)cc(Cc2cc(F)ccc2Br)c1C [Compound 233, N′-(3-(2-bromo-5-fluorobenzyl)-5-fluoro-2-methylphenyl)-N-ethyl-N-methylformimidamide]
≥ 70%: inhibition of growth at 300 ppm [7] | inhibition of growth at 300 ppm [1] | inhibition of growth at 300 ppm [2] | inhibition of growth at 300 ppm [3] | inhibition of growth at 300 ppm [4] | pest or weed control at 500 ppm [5]

CCN(C)C=Nc1cc(Cl)cc(Cc2cccc(F)c2)c1C [Compound 102, N′-(5-chloro-3-(3-fluorobenzyl)-2-methylphenyl)-N-ethyl-N-methylformimidamide]
≥ 70%: inhibition of growth at 300 ppm [7] | inhibition of growth at 300 ppm [1] | inhibition of growth at 300 ppm [2] | inhibition of growth at 300 ppm [3] | inhibition of growth at 300 ppm [4] | pest or weed control at 500 ppm [5]

CCN(C)C=Nc1cc(F)cc(N(C)c2cc(Cl)ccc2C)c1C [Compound 98, N′-(3-((5-chloro-2-methylphenyl)(methyl)amino)-5-fluoro-2-methylphenyl)-N-ethyl-N-methylformimidamide]
≥ 70%: inhibition of growth at 300 ppm [7] | inhibition of growth at 300 ppm [1] | inhibition of growth at 300 ppm [2] | inhibition of growth at 300 ppm [3] | inhibition of growth at 300 ppm [4] | pest or weed control at 500 ppm [5]

CCN(C)C=Nc1cc(C)cc(Cc2ccccc2C(F)(F)F)c1Cl [Compound 21, N′-(2-chloro-5-methyl-3-(2-(trifluoromethyl)benzyl)phenyl)-N-ethyl-N-methylformimidamide]
≥ 70%: inhibition of growth at 300 ppm [7] | inhibition of growth at 300 ppm [1] | inhibition of growth at 300 ppm [2] | inhibition of growth at 300 ppm [3] | inhibition of growth at 300 ppm [4] | pest or weed control at 500 ppm [5]

CCN(C)C=Nc1cc(C)cc(Nc2cc(C)ccc2Cl)c1Cl [Compound 115, N′-(2-chloro-3-((2-chloro-5-methylphenyl)amino)-5-methylphenyl)-N-ethyl-N-methylformimidamide]
≥ 70%: inhibition of growth at 300 ppm [1] | inhibition of growth at 300 ppm [2] | inhibition of growth at 300 ppm [4] | pest or weed control at 500 ppm [5] | inhibition of growth at 300 ppm [6]

CCN(C)C=Nc1cc(C)cc(Cc2ccc(Br)cc2)c1Cl [Compound 93, N′-(3-(4-bromobenzyl)-2-chloro-5-methylphenyl)-N-ethyl-N-methylformimidamide]
≥ 70%: inhibition of growth at 300 ppm [7] | inhibition of growth at 300 ppm [1] | inhibition of growth at 300 ppm [2] | inhibition of growth at 300 ppm [3] | inhibition of growth at 300 ppm [4] | pest or weed control at 500 ppm [5]

CCN(C)C=Nc1cc(Cl)cc(Cc2cccc(Cl)c2)c1C [Compound 101, N′-(5-chloro-3-(3-chlorobenzyl)-2-methylphenyl)-N-ethyl-N-methylformimidamide]
≥ 70%: inhibition of growth at 300 ppm [1] | inhibition of growth at 300 ppm [2] | inhibition of growth at 300 ppm [4] | pest or weed control at 500 ppm [5] | inhibition of growth at 300 ppm [6]

CCN(C)C=Nc1cc(C)cc(Cc2ccccc2C)c1Br [Compound 209, N′-(2-bromo-5-methyl-3-(2-methylbenzyl)phenyl)-N-ethyl-N-methylformimidamide]
≥ 70%: inhibition of growth at 300 ppm [1] | inhibition of growth at 300 ppm [2] | inhibition of growth at 300 ppm [3] | pest or weed control at 500 ppm [5] | inhibition of growth at 300 ppm [6]

CCN(C)C=Nc1cc(C)cc(Cc2cc(F)c(OC)c(F)c2)c1Cl [Compound 71, N′-(2-chloro-3-(3,5-difluoro-4-methoxybenzyl)-5-methylphenyl)-N-ethyl-N-methylformimidamide]
≥ 70%: inhibition of growth at 300 ppm [7] | inhibition of growth at 300 ppm [1] | inhibition of growth at 300 ppm [2] | inhibition of growth at 300 ppm [3] | inhibition of growth at 300 ppm [4] | pest or weed control at 500 ppm [5]

CCN(C)C=Nc1cc(C)cc(Nc2cccc(C)c2)c1Cl [Compound 36, N′-(2-chloro-5-methyl-3-(m-tolylamino)phenyl)-N-ethyl-N-methylformimidamide]
≥ 70%: inhibition of growth at 300 ppm [1] | inhibition of growth at 300 ppm [2] | inhibition of growth at 300 ppm [4] | pest or weed control at 500 ppm [5] | inhibition of growth at 300 ppm [6]

CCN(C)C=Nc1cc(Cl)cc(NCc2cccc(Cl)c2)c1C [Compound 183, N′-(5-chloro-3-((3-chlorobenzyl)amino)-2-methylphenyl)-N-ethyl-N-methylformimidamide]
≥ 70%: inhibition of growth at 300 ppm [7] | inhibition of growth at 300 ppm [1] | inhibition of growth at 300 ppm [2] | inhibition of growth at 300 ppm [3] | inhibition of growth at 300 ppm [4] | pest or weed control at 500 ppm [5]

CCN(C)C=Nc1cc(C)cc(Cc2ccc(F)c(C)c2)c1Cl [Compound 68, N′-(2-chloro-3-(4-fluoro-3-methylbenzyl)-5-methylphenyl)-N-ethyl-N-methylformimidamide]
≥ 70%: inhibition of growth at 300 ppm [7] | inhibition of growth at 300 ppm [1] | inhibition of growth at 300 ppm [2] | inhibition of growth at 300 ppm [3] | inhibition of growth at 300 ppm [4] | pest or weed control at 500 ppm [5]

CCN(C)C=Nc1cc(C)cc(Cc2ccc(OC)cc2)c1Cl [Compound 150, N′-(2-chloro-3-(4-methoxybenzyl)-5-methylphenyl)-N-ethyl-N-methylformimidamide]
≥ 70%: inhibition of growth at 300 ppm [7] | inhibition of growth at 300 ppm [1] | inhibition of growth at 300 ppm [2] | inhibition of growth at 300 ppm [3] | inhibition of growth at 300 ppm [4] | pest or weed control at 500 ppm [5]
